Data as given in patent EP0134242B1, “[…] ANTIGEN” (NEW YORK UNIVERSITY, priority 1983, dated 1984).

How the values were obtained:
[1] = test system: 2G3, 5H8, and 8B8 antibodies; assay: Inhibition immunoassays with peptide analogs, results in words for several antibodies together; format: binding, mouse; settings: for inhibition of the reaction of antibodies 2G3, 5H8 and 8B8 with the antigen (in words): P. knowlesi CS protein as antigen
Protocol: (§1) Competitive inhibition of the antigen-antibody reaction by the thus synthesized peptides was measured by the following radioimmunoassay. P.knowlesi sporozoite CS protein was used as the antigen. • a) Preparation of antigen: 3,000 purified P. knowlesi sporozoites (Vanderberg et al., Military Medicine 134:1183, 1969) in 50 µl of phosphate buffered saline (PBS) containing protease inhibitors, were delivered to the bottom of polystyrene (Falcon 3911 plate, B-D and Co., Oxnard, Calif.) microtiter plates, which were sealed with parafilm and frozen at -70°C for at least ten minutes. The plates were then allowed to defrost slowly at room temperature. This procedure was repeated six times. Then the plates were incubated at 4°C overnight, and at 56°C for five minutes. The P. knowlesi extract was then removed from the wells and these were washed three times with PBS containing 1% bovine serum albumin (BSA) and 0.1% NaN₃. The wells were then filled with PBS-BSA-NaN₃ and incubated for a few hours at room temperature. • b) Preparation of peptides and two-site radio immunoassay to determine the inhibitory activity of the analogs; • (1) All synthetic peptides were dissolved in PBS at a concentration of 10 mM and subsequently diluted serially in PBS-1% BSA/0.1%NaN₃. Twenty-five µl of serial dilutions of each peptide were added to the wells coated with antigen. Control wells received only the diluent. Then, 25 µl of the ¹²⁵I-labelled monoclonal antibody (about 5-10ng, 10⁵cpm) were added to the wells. The microtiter plates were incubated at 4°C for 18 hours, washed 5 times with PBS-BSA-NaN₃ and then the wells were counted for well-bound antibody.
The series of shorter analogs and one peptide overlapping two epitopes (7-6) shown in Table VII was used to analyze the specificity of the 2G3, 5H8, and 8B8 antibodies using the inhibition immunoassays described in Examples 10 and 11. […] On a molar basis, their activities were similar, although in some instances the larger peptides appeared to be slightly better inhibitors. […]

monoclonal antibody 2G3 = assay: Two-site immunoradiometric assay with monoclonal antibody 2G3 and synthetic peptides; format: binding, mouse
Protocol: Wells of microtiter plates (Falcon 3911) were incubated overnight at 4°C with 50 µl of a 10 µg/ml solution in PBS of the monoclonal 2G3 anti-CS protein of P.knowlesi. The wells were washed with PBS and then incubated for 2 hours at room temperature, with PBS-Tween 20 (0.05% (w/v), and then for 3 additional hours with PBS-BSA (1% (w/v). The synthetic peptides were diluted serially in PBS-BSA-Tween 20, and 30 µl aliquots of the dilutions were delivered to the bottom of individual wells. The plates were incubated overnight in the refrigerator, washed with PBS-BSA-Tween 20, and incubated with 5.0 µl (10 ng) of ¹²⁵I-labeled monoclonal antibody 2G3 diluted in PBS-BSA-Tween 20 (about 100,000 cpm). Controls consisted of plates coated with a non-relevant monoclonal antibody of the same isotype as 2G3. Specific counts were found only in wells incubated with the 24-MER and they were proportional to the dose of peptide added to the well.

antibody 8E11 = assay: Inhibition by synthetic peptides of binding of radiolabelled monoclonal antibody to CS protein (radioimmunoassay); set-up: species or system mouse; settings: at a concentration of 10⁻²M
Protocol: as §1, with “The wells were then filled with PBS-BSA-NaN₃ and incubated for a few hours at room temperature. • b) Preparation of peptides and two-site radio immunoassay to determine the inhibitory activity of the analogs; • (1) All synthetic peptides were dissolved in PBS at a concentration of 10 mM and subsequently diluted serially in PBS-1% BSA/0.1%NaN₃. Twenty-five µl of serial dilutions of each peptide were added to the wells coated with antigen. Control wells received only the diluent. Then, 25 µl of the ¹²⁵I-labelled monoclonal antibody (about 5-10ng, 10⁵cpm) were added to the wells.” left out, “antibody. […]” for “antibody.”

[2] = test system: monoclonal antibody (2G3); assay: Inhibition by 12-MER of the binding of P. knowlesi CS protein to monoclonal antibody 2G3 (two-site assay); set-up: species or system mouse
Protocol: To distinguish between these possibilities, an assay was conducted to determine the ability of the 12-MER to inhibit the interaction between the CS proteins of P.knowlesi and the monoclonal antibody 2G3. The inhibition assay was performed as follows: Wells of microtiter plates were coated with the monoclonal antibody 2G3 washed with Tween-20, saturated with BSA as described supra. In one series of tubes, the 12-MER was serially diluted in PBS-BSA-Tween 20. In a second series of tubes, an extract of P.knowlesi sporozoites (prepared as described by Cochrane, et al, supra) was serially diluted in PBS-BSA-Tween 20. Aliquots of each dilution of sporozoites were mixed with equal volumes of all dilutions of 12-MER. 30 µl of these mixtures were then added to the bottom of the 2G3-coated wells. As positive and negative controls, 30 µl aliquots of sporozoite dilutions mixed with PBS-BSA-Tween 20 were added to other wells which had been precoated with 2G3 or with a non-relevant monoclonal antibody. After overnight incubation in the refrigerator, the wells were washed and 50 µl (10 ug) of ¹²⁵I-labeled 2G3 diluted in PBS-BSA-Tween 20 were added. Following an additional incubation at room temperature for 1 hour, the wells were washed and counted in a gamma counter. The results are shown in Table V. The 12-MER inhibited, in a dose-dependent fashion, the interaction of the P.knowlesi CS protein with 2G3.

| Substance | activity in the inhibition assays of the foregoing Examples (in words) ([1]; assayed as in the foregoing Examples (antibodies 2G3, 5H8, 8B8, 8E11)) | inhibition of the reaction of antibodies 2G3, 5H8 and 8B8 with the antigen (in words) [1] | Amount of radiolabeled 2G3 (cpm) bound in wells (monoclonal antibody 2G3; peptide 5. µg/ml incubated with the solid-phase antibody 2G3) | Amount of radiolabeled 2G3 (cpm) bound in wells (monoclonal antibody 2G3; peptide 50. µg/ml incubated with the solid-phase antibody 2G3) | Amount of radiolabeled 2G3 (cpm) bound in wells (monoclonal antibody 2G3; peptide 500. µg/ml incubated with the solid-phase antibody 2G3) | Amount of radiolabeled 2G3 (cpm) bound in wells (monoclonal antibody 2G3; peptide .5 µg/ml incubated with the solid-phase antibody 2G3) | inhibitory effect on binding of radiolabelled 8E11 to the CS protein (antibody 8E11) | Amount of 2G3 bound (cpm) in the presence of the 12-MER inhibitor ([2]; 12-MER 0.08 mg/ml, P. knowlesi extract 10³ sporozoites/ml (no inhibitor: 156)) | Amount of 2G3 bound (cpm) in the presence of the 12-MER inhibitor ([2]; 12-MER 0.08 mg/ml, P. knowlesi extract 10⁴ sporozoites/ml (no inhibitor: 1353)) | Amount of 2G3 bound (cpm) in the presence of the 12-MER inhibitor ([2]; 12-MER 0.08 mg/ml, P. knowlesi extract 10⁵ sporozoites/ml (no inhibitor: 4390)) | Amount of 2G3 bound (cpm) in the presence of the 12-MER inhibitor ([2]; 12-MER 0.08 mg/ml, P. knowlesi extract 10⁶ sporozoites/ml (no inhibitor: 5582)) | Amount of 2G3 bound (cpm) in the presence of the 12-MER inhibitor ([2]; 12-MER 0.6 mg/ml, P. knowlesi extract 10³ sporozoites/ml (no inhibitor: 156)) | Amount of 2G3 bound (cpm) in the presence of the 12-MER inhibitor ([2]; 12-MER 0.6 mg/ml, P. knowlesi extract 10⁴ sporozoites/ml (no inhibitor: 1353)) | Amount of 2G3 bound (cpm) in the presence of the 12-MER inhibitor ([2]; 12-MER 0.6 mg/ml, P. knowlesi extract 10⁵ sporozoites/ml (no inhibitor: 4390)) | Amount of 2G3 bound (cpm) in the presence of the 12-MER inhibitor ([2]; 12-MER 0.6 mg/ml, P. knowlesi extract 10⁶ sporozoites/ml (no inhibitor: 5582)) | Amount of 2G3 bound (cpm) in the presence of the 12-MER inhibitor ([2]; 12-MER 5.0 mg/ml, P. knowlesi extract 10³ sporozoites/ml (no inhibitor: 156)) | Amount of 2G3 bound (cpm) in the presence of the 12-MER inhibitor ([2]; 12-MER 5.0 mg/ml, P. knowlesi extract 10⁴ sporozoites/ml (no inhibitor: 1353)) | Amount of 2G3 bound (cpm) in the presence of the 12-MER inhibitor ([2]; 12-MER 5.0 mg/ml, P. knowlesi extract 10⁵ sporozoites/ml (no inhibitor: 4390)) | Amount of 2G3 bound (cpm) in the presence of the 12-MER inhibitor ([2]; 12-MER 5.0 mg/ml, P. knowlesi extract 10⁶ sporozoites/ml (no inhibitor: 5582)) |
| --- | --- | --- | --- | --- | --- | --- | --- | --- | --- | --- | --- | --- | --- | --- | --- | --- | --- | --- | --- |
| Ala₇-Asn₈-Ala₉-Gly₁₀-Gln₁₁-Pro₁₂-Gln₁-Ala₂-Gln₃-Gly₄-Asp₅-Gly₆ | inactive | – | – | – | – | – | – | – | – | – | – | – | – | – | – | – | – | – | – |
| Asp₅-Gly-Ala-Asn-Ala-Gly-Gln-Pro₁₂ [5 - 12] | – | strongly inhibitory | – | – | – | – | – | – | – | – | – | – | – | – | – | – | – | – | – |
| H₂N-GlnAlaGlnGlyAspGlyAla-AsnAlaGlyGlnPro-COOH (H-QAQGDGANAGQP-OH) [Peptide 12-MER] | – | strongly inhibitory | 40 cpm | 103 cpm | 157 cpm | 0 cpm | no appreciable inhibitory effect | 72 cpm | 102 cpm | 1221 cpm | 3893 cpm | 0 cpm | 70 cpm | 781 cpm | 3018 cpm | 37 cpm | 3 cpm | 361 cpm | 1099 cpm |
